Series [1] deals with T1, purified human FAS (Homo sapiens, UniProt P49327).
T1 construct: Human FAS was purified from cultured ZR-75-1 human breast cancer cells obtained from the American Type Culture Collection; endogenous in cells; host or cells: ZR-75-1 human breast cancer cells (ATCC); PEG precipitations and Mono Q anion exchange
The series is described as follows: Measurement of FAS enzymatic activity (malonyl-CoA dependent NADPH oxidation). The class given is biochemical. The method, then: Human FAS was purified from cultured ZR-75-1 human breast cancer cells obtained from the American Type Culture Collection. The procedure, adapted from Linn et al., 1981, and Kuhajda et al., 1994, utilizes hypotonic lysis, successive polyethyleneglycol (PEG) precipitations, and anion exchange chromatography. ZR-75-1 cells are cultured at 37° C. with 5% CO2 in RPMI culture medium with 10% fetal bovine serum, penicillin and streptomycin.
Ten T150 flasks of confluent cells are lysed with 1.5 ml lysis buffer (20 mM Tris-HCl, pH 7.5, 1 mM EDTA, 0.1 mM phenylmethanesulfonyl fluoride (PMSF), 0.1% Igepal CA-630) and dounce homogenized on ice for 20 strokes. The lysate is centrifuged in JA-20 rotor (Beckman) at 20,000 rpm for 30 minutes at 4° C. and the supernatant is brought to 42 ml with lysis buffer. A solution of 50% PEG 8000 in lysis buffer is added slowly to the supernatant to a final concentration of 7.5%. After rocking for 60 minutes at 4° C., the solution is centrifuged in JA-20 rotor (Beckman) at 15,000 rpm for 30 minutes at 4° C. Solid PEG 8000 is then added to the supernatant to a final concentration of 15%. After the rocking and centrifugation is repeated as above, the pellet is resuspended overnight at 4° C. in 10 ml of Buffer A (20 mM K2HPO4, pH 7.4). After […] filtration, the protein solution is applied to a Mono Q 5/5 anion exchange column (Pharmacia). The column is washed for 15 minutes with buffer A at 1 ml/minute, and bound material is eluted with a linear 60-ml gradient over 60 minutes to 1 M KCl. FAS (MW˜270 kD) typically elutes at 0.25 M KCl in three 0.5 ml fractions identified using 4-15% SDS-PAGE with Coomassie G250 stain (Bio-Rad). FAS protein concentration is determined using the Coomassie Plus Protein Assay Reagent (Pierce) according to manufacturer's specifications using BSA as a standard. This procedure results in substantially pure preparations of FAS (>95%) as judged by Coomassie-stained gels.
FAS activity is measured by monitoring the malonyl-CoA dependent oxidation of NADPH spectrophotometrically at OD340 in 96-well plates (Dils et al and Arslanian et al, 1975). Each well contains 2 μg purified FAS, 100 mM K2HPO4, pH 6.5, 1 mM dithiothreitol (Sigma), and 187.5 μM β-NADPH (Sigma). Stock solutions of inhibitors are prepared in DMSO at 2, 1, and 0.5 mg/ml resulting in final concentrations of 20, 10, and 5 μg/ml when 1 μl of stock is added per well. For each experiment, cerulenin (Sigma) is run as a positive control along with DMSO controls, inhibitors, and blanks (no FAS enzyme) all in duplicate.
The assay is performed on a Molecular Devices SpectraMax Plus Spectrophotometer. The plate containing FAS, buffers, inhibitors, and controls are placed in the spectrophotometer heated to 37° C. Using the kinetic protocol, the wells are blanked on duplicate wells containing 100 μl of 100 mM K2HPO4, pH 6.5 and the plate is read at OD340 at 10 sec intervals for 5 minutes to measure any malonyl-CoA independent oxidation of NADPH. The plate is removed from the spectrophotometer and malonyl-CoA (67.4 μM, final concentration per well) and […] (61.8 μM, final concentration per well) are added to each well except to the blanks. The plate is read again as above with the kinetic protocol to measure the malonyl-CoA dependent NADPH oxidation. The difference between the Δ OD340 for the malonyl-CoA dependent and non-malonyl-CoA dependent NADPH oxidation is the specific FAS activity. Because of the purity of the FAS preparation, non-malonyl-CoA dependent NADPH oxidation is negligible.
The concentration of compound yielding 50% inhibition of FAS is the IC50. Graphs of Δ OD340 versus time are plotted by the SOFTmax PRO software (Molecular Devices) for each compound concentration. Computation of linear regression, best-fit line, r^2, and 95% confidence intervals are calculated using Prism Version 3.0 (Graph Pad Software).

For series [2], the system named is MCF-7 human breast cancer cells. The series is described as follows: Crystal violet cell growth assay. Format: cell-based. As to conditions: MCF7, MCF-7, 72 hours, read-out: Cr. Violet (IC50). The method, then: The crystal violet assay measures cell growth but not cytotoxicity. This assay employs crystal violet staining of fixed cells in 96-well plates with subsequent solubilization and measurement of OD490 on a spectrophotometer. The OD490 corresponds to cell growth per unit time measured. Cells are treated with the compounds of interest or vehicle controls and IC50 for each compound is computed.
To measure the cytotoxicity of specific compounds against cancer cells, 5×10^4 MCF-7 human breast cancer cells, obtained from the American Type Culture Collection are plated per well in 24 well plates in DMEM medium with 10% fetal bovine serum, penicillin, and streptomycin. Following overnight culture at 37° C. and 5% CO2, the compounds to be tested, dissolved in DMSO, are added to the wells in 1 μl volume at the following concentrations: 50, 40, 30, 20, and 10 μg/ml in triplicate. Additional concentrations are tested if required. 1 μl of DMSO is added to triplicate wells are the vehicle control. C75 is run at 10, and 5 μg/ml in triplicate as positive controls.
After 72 hours of incubation, cells are stained with 0.5 ml of Crystal Violet stain (0.5% in 25% methanol) in each well. After 10 minutes, wells are rinsed, air dried, and then solubilized with 0.5 ml 10% sodium dodecylsulfate with shaking for 2 hours. Following transfer of 100 μl from each well to a 96-well plate, plates are read at OD490 on a Molecular Devices SpectraMax Plus Spectrophotometer Average OD490 values are computed using SOFTmax Pro Software (Molecular Devices) and IC50 values are determined by linear regression analysis using Prism version 3.02 (Graph Pad Software, San Diego).

Where [3] appears, read: marked (SB), abbreviation not defined, read-out: FAS (IC50) (SB) (converted).

Converted amounts (≈) assume the structure as drawn. Where two headings read alike, the source gives them in different places.

These results are taken from patent US20100029761A1, “NOVEL COMPOUNDS, PHARMACEUTICAL COMPOSITIONS CONTAINING SAME, AND METHODS OF USE FOR SAME” (priority 2005, published 2010).

T1 sequence (P49327 whole entry): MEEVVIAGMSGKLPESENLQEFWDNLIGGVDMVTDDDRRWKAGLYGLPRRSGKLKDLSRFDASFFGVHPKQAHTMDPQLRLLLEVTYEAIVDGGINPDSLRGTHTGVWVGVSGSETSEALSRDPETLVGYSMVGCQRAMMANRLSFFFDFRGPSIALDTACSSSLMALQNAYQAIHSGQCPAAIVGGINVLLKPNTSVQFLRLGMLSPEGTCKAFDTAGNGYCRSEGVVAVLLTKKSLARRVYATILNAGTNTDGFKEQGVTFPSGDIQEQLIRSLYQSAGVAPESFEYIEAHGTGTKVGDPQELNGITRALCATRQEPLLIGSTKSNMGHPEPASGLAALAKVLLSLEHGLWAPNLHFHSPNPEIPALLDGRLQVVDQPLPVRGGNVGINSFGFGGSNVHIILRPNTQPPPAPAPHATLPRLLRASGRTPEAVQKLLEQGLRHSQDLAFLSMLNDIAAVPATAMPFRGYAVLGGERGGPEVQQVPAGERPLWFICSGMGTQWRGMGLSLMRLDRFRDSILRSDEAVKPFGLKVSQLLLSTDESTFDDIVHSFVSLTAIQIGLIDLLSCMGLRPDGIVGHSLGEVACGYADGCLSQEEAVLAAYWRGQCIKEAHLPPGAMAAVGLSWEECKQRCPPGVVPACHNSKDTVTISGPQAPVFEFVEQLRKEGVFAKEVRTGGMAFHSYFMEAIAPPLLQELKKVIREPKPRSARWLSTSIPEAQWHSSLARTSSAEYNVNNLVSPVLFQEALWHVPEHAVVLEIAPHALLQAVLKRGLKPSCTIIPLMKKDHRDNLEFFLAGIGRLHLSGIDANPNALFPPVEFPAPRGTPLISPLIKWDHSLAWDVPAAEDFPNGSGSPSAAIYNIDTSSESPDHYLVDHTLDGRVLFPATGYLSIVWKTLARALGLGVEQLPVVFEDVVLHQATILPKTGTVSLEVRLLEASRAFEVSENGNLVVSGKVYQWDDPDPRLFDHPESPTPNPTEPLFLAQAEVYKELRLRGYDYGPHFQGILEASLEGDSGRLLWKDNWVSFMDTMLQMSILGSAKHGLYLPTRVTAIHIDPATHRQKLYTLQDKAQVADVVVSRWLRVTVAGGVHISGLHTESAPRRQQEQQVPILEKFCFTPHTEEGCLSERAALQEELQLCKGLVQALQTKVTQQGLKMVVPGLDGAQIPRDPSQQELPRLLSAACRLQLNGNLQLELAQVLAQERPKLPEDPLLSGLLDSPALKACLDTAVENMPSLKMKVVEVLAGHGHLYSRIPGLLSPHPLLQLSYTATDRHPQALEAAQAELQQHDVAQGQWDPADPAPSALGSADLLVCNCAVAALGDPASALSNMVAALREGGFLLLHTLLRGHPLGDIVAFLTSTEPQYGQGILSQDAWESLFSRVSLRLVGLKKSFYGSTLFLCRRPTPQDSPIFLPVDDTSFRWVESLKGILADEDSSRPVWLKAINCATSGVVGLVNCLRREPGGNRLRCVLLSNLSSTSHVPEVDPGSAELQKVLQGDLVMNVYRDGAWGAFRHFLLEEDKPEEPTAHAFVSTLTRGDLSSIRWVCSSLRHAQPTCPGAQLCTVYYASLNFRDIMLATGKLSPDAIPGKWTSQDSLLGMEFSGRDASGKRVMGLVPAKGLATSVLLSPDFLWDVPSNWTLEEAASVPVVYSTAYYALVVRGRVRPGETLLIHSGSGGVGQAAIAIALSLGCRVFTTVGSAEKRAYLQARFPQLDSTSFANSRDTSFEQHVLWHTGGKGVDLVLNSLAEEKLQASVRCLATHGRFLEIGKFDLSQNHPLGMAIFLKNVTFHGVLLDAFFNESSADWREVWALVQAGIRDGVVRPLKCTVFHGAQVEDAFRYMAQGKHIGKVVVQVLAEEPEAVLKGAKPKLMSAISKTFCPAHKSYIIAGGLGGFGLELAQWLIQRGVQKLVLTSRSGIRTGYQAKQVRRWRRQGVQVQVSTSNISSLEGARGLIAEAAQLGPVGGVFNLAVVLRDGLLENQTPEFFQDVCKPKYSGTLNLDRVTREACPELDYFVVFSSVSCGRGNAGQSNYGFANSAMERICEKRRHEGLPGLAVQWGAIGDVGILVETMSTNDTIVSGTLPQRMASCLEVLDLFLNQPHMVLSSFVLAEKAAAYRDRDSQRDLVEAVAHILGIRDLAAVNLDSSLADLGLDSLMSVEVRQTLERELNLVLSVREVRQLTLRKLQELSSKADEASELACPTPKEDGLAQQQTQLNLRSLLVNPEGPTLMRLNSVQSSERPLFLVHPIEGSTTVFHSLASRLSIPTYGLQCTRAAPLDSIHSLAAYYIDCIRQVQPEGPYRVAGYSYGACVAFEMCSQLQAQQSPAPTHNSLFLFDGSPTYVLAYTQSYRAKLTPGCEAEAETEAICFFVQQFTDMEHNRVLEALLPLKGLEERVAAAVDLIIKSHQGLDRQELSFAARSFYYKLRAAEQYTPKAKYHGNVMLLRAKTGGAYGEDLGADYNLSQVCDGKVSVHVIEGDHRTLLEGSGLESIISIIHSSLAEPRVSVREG

Consider `CCCCCCCCC1OC(=O)C(OCC(=O)OCC)=C1C(=O)OCC` (stereo not drawn) [Compound 3], for which the IC50 was 121 µM in series [1] (setting [3]) and 35.4 mg/L (≈ 95.6 µM) in series [2]. The “FAS (IC50)” value in series [1] (purified human FAS, OD340) is given as “Neg”.
As to `CCCCC1OC(=O)C(O)=C1C(=O)OCC` (stereo not drawn) [Compound 2], the IC50 in series [1] (setting [3]) is 1230 µM; in series [2], 41.9 mg/L (≈ 184 µM). Also, the “FAS (IC50)” value in series [1] (purified human FAS, OD340) is reported as “Neg”.
For the compound `CCCCCCCCC1OC(=O)C(=O)C1C(=O)OCC` (stereo not drawn) [Compound 1], the IC50 in series [1] (purified human FAS, OD340, read-out: FAS (IC50) (converted)) is 65.1 µM; in series [2] it was 28 mg/L (≈ 98.5 µM).
`CCCCCCCCC1OC(=O)C(OCc2ccccc2)=C1C(=O)OCC` (stereo not drawn) [Compound 5]: in series [1], the “Solubility remark under FAS (IC50)” value is given as “Solubility problems”. Besides, in series [1] (purified human FAS, OD340), the “FAS (IC50)” value is reported as “Neg”. In addition, the IC50 in series [2] came to 17.1 mg/L (≈ 45.7 µM).
On to `CCCCCCCCC1OC(=O)C(OC(=O)OCC)=C1C(=O)OCC` (stereo not drawn) [Compound 7], for which the IC50 in series [1] (setting [3]) was 222 µM.
Regarding `CCCCCCCCC1OC(=O)C(OC)=C1C(=O)OCC` (stereo not drawn) [Compound 4], the “Solubility remark under FAS (IC50)” value in series [1] is listed as “Solubility problems”. The “FAS (IC50)” value in series [1] (purified human FAS, OD340) is given as “Neg”. The IC50 in series [2] worked out at 10.7 mg/L (≈ 35.9 µM).
As to `C=CCOC1=C(C(=O)OCC)C(CCCCCCCC)OC1=O` (stereo not drawn) [Compound 6], the “Solubility remark under FAS (IC50)” value in series [1] is given as “Solubility problems”. In addition, the “FAS (IC50)” value in series [1] (purified human FAS, OD340) is “Neg”. For the same compound, in series [2], the IC50 was determined as 22 mg/L (≈ 67.8 µM).
